Patent publication US8263598B2, “Substituted sulfonamide compounds” (Gruenenthal GmbH, priority 2008, dated 2012)

Tests used:
[1] = biological target: T1, human B1R receptor (hB1R) (Homo sapiens, UniProt P46663); assay: FLIPR Ca2+ assay on human bradykinin 1 receptor (CHO K1 hB1R cells); assay type: cell-based; settings: test substance 10 μM; CHO K1 cells with human B1R gene; agonist Lys-Des-Arg9-bradykinin 0.5 nM; compared to maximum achievable inhibition
T1 construct: host or cells: CHO K1 cells
T1 sequence (P46663 1-353): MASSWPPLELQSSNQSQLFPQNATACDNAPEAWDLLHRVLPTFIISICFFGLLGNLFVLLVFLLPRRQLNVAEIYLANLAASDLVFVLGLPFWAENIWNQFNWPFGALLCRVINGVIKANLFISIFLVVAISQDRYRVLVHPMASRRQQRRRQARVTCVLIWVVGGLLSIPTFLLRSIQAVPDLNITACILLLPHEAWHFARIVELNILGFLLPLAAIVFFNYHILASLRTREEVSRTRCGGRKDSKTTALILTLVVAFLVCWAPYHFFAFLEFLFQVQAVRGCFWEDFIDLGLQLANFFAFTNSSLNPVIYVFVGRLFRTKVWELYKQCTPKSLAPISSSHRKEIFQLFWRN
How it was run: (§1)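 Values are percent inhibition of agonist-evoked Ca²⁺ influx, measured by Fluo-4 fluorescence peak in FLIPR relative to maximum achievable inhibition. Compound at 10 μM was preincubated 10 min on B1R-transfected CHO K1 cells before challenge with 0.5 nM Lys-Des-Arg9-bradykinin (human) or 100 nM Des-Arg9-bradykinin (rat).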

[2] = biological target: T2, B1R receptor of rats (rB1R) (Rattus norvegicus, UniProt P97583); assay: FLIPR Ca2+ assay on rat bradykinin 1 receptor (CHO K1 rB1R cells); assay type: cell-based; settings: test substance 10 μM; CHO K1 cells with B1R gene of rats; agonist Des-Arg9-bradykinin 100 nM; compared to maximum achievable inhibition
T2 construct: host or cells: CHO K1 cells
T2 sequence (P97583 1-337): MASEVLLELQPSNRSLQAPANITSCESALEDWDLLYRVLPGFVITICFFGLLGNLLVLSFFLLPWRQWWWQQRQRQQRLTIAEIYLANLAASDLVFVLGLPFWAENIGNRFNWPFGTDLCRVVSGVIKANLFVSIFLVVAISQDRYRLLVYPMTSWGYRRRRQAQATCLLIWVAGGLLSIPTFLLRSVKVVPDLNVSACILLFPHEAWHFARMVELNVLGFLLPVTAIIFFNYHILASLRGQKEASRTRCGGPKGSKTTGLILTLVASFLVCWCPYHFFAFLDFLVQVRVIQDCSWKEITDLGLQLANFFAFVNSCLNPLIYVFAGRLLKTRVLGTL
How it was run: as §1

Row | Compound | inhibition at 10 µM [1] | inhibition at 10 µM [2] | hB1R [10 μM] % Inhibition [1] | rB1R [10 μM] % Inhibition [2]
1 | COc1ccc(C2c3cccn3CCN2C(=O)COCCN(Cc2ccccc2)S(=O)(=O)c2c(C)cc(OC)cc2C)cc1 (centres unmarked) [Example 47, N-benzyl-4-methoxy-N-(2-(2-(1-(4-methoxyphenyl)-3,4-dihydropyrrolo[1,2-a]pyrazin-2(1H)-yl)-2-oxoethoxy)ethyl)-2,6-dimethylbenzenesulfonamide] | 42% | 100% |  | 
2 | COc1cccc(C2c3cccn3CCN2C(=O)COCCN(C)S(=O)(=O)c2cc(C)c(OC)c(C)c2C)c1 (centres unmarked) [Example 38, 4-methoxy-N-(2-(2-(1-(3-methoxyphenyl)-3,4-dihydropyrrolo[1,2-a]pyrazin-2(1H)-yl)-2-oxoethoxy)ethyl)-N,2,3,5-tetramethylbenzenesulfonamide] | 97% | 43% |  | 
3 | COc1cc(C)c(S(=O)(=O)N(C)CCOCC(=O)N2CCn3cccc3C2c2cccnc2)c(C)c1C (centres unmarked) [Example 81, 4-methoxy-N,2,3,6-tetramethyl-N-(2-(2-oxo-2-(1-(pyridin-3-yl)-3,4-dihydropyrrolo[1,2-a]pyrazin-2(1H)-yl)ethoxy)ethyl)benzenesulfonamide] | 98% | 99% |  | 
4 | CCC1c2ccc(C)n2CCN1C(=O)COCCN(C)S(=O)(=O)c1c(C)cc(OC)cc1C (centres unmarked) [Example 138, N-(2-(2-(1-ethyl-6-methyl-3,4-dihydropyrrolo[1,2-a]pyrazin-2(1H)-yl)-2-oxoethoxy)ethyl)-4-methoxy-N,2,6-trimethylbenzenesulfonamide] | 104% | 102% |  | 
5 | COc1cc(C)c(S(=O)(=O)N(CCOCC(=O)N2CCn3c(CN(C)C)ccc3C2CCc2ccccc2)CC(C)C)c(C)c1C (centres unmarked) [Example 96, N-(2-(2-(6-((dimethylamino)methyl)-1-phenethyl-3,4-dihydropyrrolo[1,2-a]pyrazin-2(1H)-yl)-2-oxoethoxy)ethyl)-N-isobutyl-4-methoxy-2,3,6-trimethyl-benzenesulfonamide] | 102% | 101% |  | 
6 | COc1cc(C)c(S(=O)(=O)N(CCOCC(=O)N2CCn3ccnc3C2)CC(C)C)c(C)c1C [Example 21, N-(2-(2-(5,6-dihydroimidazo[1,2-a]pyrazin-7(8H)-yl)-2-oxoethoxy)ethyl)-N-isobutyl-4-methoxy-2,3,6-trimethylbenzenesulfonamide] | 31% | 100% |  | 
7 | COc1c(C)cc(S(=O)(=O)N(C)CCOCC(=O)N2CCn3cccc3C2c2cccc(C(F)(F)F)c2)c(C)c1C (centres unmarked) [Example 37, 4-methoxy-N,2,3,5-tetramethyl-N-(2-(2-oxo-2-(1-(3-(trifluoromethyl)phenyl)-3,4-dihydropyrrolo[1,2-a]pyrazin-2(1H)-yl)ethoxy)ethyl)benzenesulfonamide] | 38% | 72% |  | 
8 | COc1cc(C)c(S(=O)(=O)N(C)CCOCC(=O)N2CCn3cccc3C2c2cccs2)c(C)c1 (centres unmarked) [Example 60, 4-Methoxy-N,2,6-trimethyl-N-(2-(2-oxo-2-(1-(thiophen-2-yl)-3,4-dihydropyrrolo[1,2-a]pyrazin-2(1H)-yl)ethoxy)ethyl)benzenesulfonamide] | 100% | 98% |  | 
9 | Cc1cc(C)c(S(=O)(=O)N(C)CCOCC(=O)N2CCn3cccc3C2c2cccc(F)c2)c(C)c1 (centres unmarked) [Example 73, N-(2-(2-(1-(3-fluorophenyl)-3,4-dihydropyrrolo[1,2-a]pyrazin-2(1H)-yl)-2-oxoethoxy)ethyl)-N,2,4,6-tetramethylbenzenesulfonamide] | 102% | 99% |  | 
10 | Cc1cc(C)c(S(=O)(=O)N(C)CCOCC(=O)N2CCn3c(CN(C)C)ccc3C2c2cccs2)c(C)c1 (centres unmarked) [Example 144, N-(2-(2-(6-((dimethylamino)methyl)-1-(thiophen-2-yl)-3,4-dihydropyrrolo[1,2-a]pyrazin-2(1H)-yl)-2-oxoethoxy)ethyl)-N,2,4,6-tetramethylbenzenesulfonamide] | 104% | 104% |  | 
11 | CCCC1c2cccn2CCN1C(=O)COCCN(Cc1ccccc1)S(=O)(=O)c1c(C)cc(OC)cc1C (centres unmarked) [Example 154, N-benzyl-4-methoxy-2,6-dimethyl-N-(2-(2-oxo-2-(1-propyl-3,4-dihydropyrrolo[1,2-a]pyrazin-2(1H)-yl)ethoxy)ethyl)benzenesulfonamide] | 23% | 87% |  | 
12 | COc1cc(C)c(S(=O)(=O)N(C)CCOCC(=O)N2CCn3cccc3C2c2cccc(C(F)(F)F)c2)c(C)c1 (centres unmarked) [Example 61, 4-methoxy-N,2,6-trimethyl-N-(2-(2-oxo-2-(1-(3-(trifluoromethyl)phenyl)-3,4-dihydropyrrolo[1,2-a]pyrazin-2(1H)-yl)ethoxy)ethyl)benzenesulfonamide] | 100% | 99% |  | 
13 | COc1cc(C)c(S(=O)(=O)N(CCOCC(=O)N2CCn3c(CN(C)C)ccc3C2Cc2ccccc2)Cc2ccccc2)c(C)c1 (centres unmarked) [Example 129, N-benzyl-N-(2-(2-(1-benzyl-6-((dimethylamino)methyl)-3,4-dihydropyrrolo[1,2-a]pyrazin-2-(1H)-yl)-2-oxoethoxy)ethyl)-4-methoxy-2,6-dimethylbenzene-sulfonamide] |  |  | 100% | 101%
14 | CCCC1c2cccn2CCN1C(=O)COCCN(Cc1ccccc1)S(=O)(=O)c1c(C)cc(OC)c(C)c1C (centres unmarked) [Example 123, N-benzyl-4-methoxy-2,3,6-trimethyl-N-(2-(2-oxo-2-(1-propyl-3,4-dihydropyrrolo[1,2-a]pyrazin-2(1H)-yl)ethoxy)ethyl)benzenesulfonamide] | 41% | 86% |  | 
15 | COc1cc(C)c(S(=O)(=O)N(CCOCC(=O)N2CCn3cccc3C2c2cccnc2)Cc2ccccc2)c(C)c1C (centres unmarked) [Example 41, N-benzyl-4-methoxy-2,3,6-trimethyl-N-(2-(2-oxo-2-(1-(pyridin-3-yl)-3,4-dihydropyrrolo[1,2-a]pyrazin-2(1H)-yl)ethoxy)ethyl)benzenesulfonamide] | 57% | 96% |  | 
16 | COc1cc(C)c(S(=O)(=O)N(C)CCOCC(=O)N2CCn3cccc3C2c2ccc(C)c(C)c2)c(C)c1C (centres unmarked) [Example 86, N-(2-(2-(1-(3,4-dimethylphenyl)-3,4-dihydropyrrolo[1,2-a]pyrazin-2(1H)-yl)-2-oxoethoxy)ethyl)-4-methoxy-N,2,3,6-tetramethylbenzenesulfonamide] | 91% | 71% |  | 
17 | O=C(CC(NS(=O)(=O)c1ccc2ccccc2c1)c1ccccc1)N1CCn2c(CN3CCOCC3)ccc2C1 (centres unmarked) [Example 10, N-(3-(6-(morpholinomethyl)-3,4-dihydropyrrolo[1,2-a]pyrazin-2(1H)-yl)-3-oxo-1-phenylpropyl)naphthalene-2-sulfonamide] | 97% | 100% |  | 
18 | O=C(C[C@@H](NS(=O)(=O)c1ccc2ccccc2c1)c1ccccc1)N1CCn2cc(CN3CCCCC3)nc2C1 [Example 4, (R)-N-(3-oxo-1-phenyl-3-(2-(piperidin-1-ylmethyl)-5,6-dihydroimidazo[1,2-a]pyrazin-7(8H)-yl)propyl)naphthalene-2-sulfonamide] | 102% | 98% |  | 
19 | O=C(CC(NS(=O)(=O)c1ccc2ccccc2c1)c1ccccc1)N1CCn2c(CCc3ccncc3)ccc2C1 (centres unmarked) [Example 173, N-(3-Oxo-1-phenyl-3-(6-(2-(pyridin-4-yl)ethyl)-3,4-dihydropyrrolo[1,2-a]pyrazin-2(1H)-yl)propyl)naphthalene-2-sulfonamide] | 20% | 75% |  | 
